Measured values: patent publication US20160237059A1, “HETEROCYCLIC SUBSTITUTED TRIFLUOROMETHYL PYRIMIDINONES AND THEIR USE” (BAYER PHARMA AKTIENGESELLSCHAFT, priority 2013, published 2016)

Tests used:
human CCR2 = target: T1, human CCR2 (Homo sapiens, UniProt P41597); assay: Functional Ca2+ release test (B-1); assay type: cell-based; conditions: Chem-1 cell line transfected with human CCR2; 50% inhibition of the MCP-1 effect, MCP-1 at EC50 (about 5 nM); in some cases means of several determinations
T1 construct: host or cells: Chem-1 cell line
T1 sequence (P41597 1-360 isoform P41597-2): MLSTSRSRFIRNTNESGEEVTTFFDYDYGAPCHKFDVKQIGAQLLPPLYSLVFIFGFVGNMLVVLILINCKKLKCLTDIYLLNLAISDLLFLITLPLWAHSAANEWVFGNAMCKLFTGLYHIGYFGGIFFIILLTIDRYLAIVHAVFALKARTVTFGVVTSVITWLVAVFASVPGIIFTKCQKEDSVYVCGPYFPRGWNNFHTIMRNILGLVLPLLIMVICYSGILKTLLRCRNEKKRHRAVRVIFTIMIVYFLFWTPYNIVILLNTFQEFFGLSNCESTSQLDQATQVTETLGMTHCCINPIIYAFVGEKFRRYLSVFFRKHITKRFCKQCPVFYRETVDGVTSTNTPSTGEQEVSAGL
Experimental: The antagonistic action of test substances on CCR2 was determined in a functional Ca^2+ release test. Binding of CCL2/MCP-1 to CCR2 leads to a change in the conformation of the receptor resulting in Gi/Gq protein activation and intracellular signal cascade. This involves, inter alia, an intracellular Ca^2+ release. The test cell used was a Chem-1 cell line transfected with human CCR2 (ChemiSCREEN™ CCR2B Calcium-Optimized FLIPR Cell Line, Merck Millipore).
(§1) The test substances were dissolved in dimethyl sulphoxide (DMSO) at a concentration of 10 mM and serially diluted with DMSO in steps of 1:3.16 for a 10-point dose/activity analysis. According to the desired test concentrations, the substances were pre-diluted in Tyrode with 2 mM CaCl2 and 0.05% BSA.
The cells, cultivated in DMEM high glucose [supplemented with 10% FCS, 1 mM pyruvate, 15 mM HEPES, 500 μg/ml geniticin and non-essential amino acids (NEAA)], were sown at 5000 cells/25 μl in 384 well, μCLEAR/black cell culture plates from Greiner (#781092) and incubated at 37° C. for 24 h. The sowing medium consisted of DMEM high glucose [supplemented with 5% FCS, 1 mM pyruvate, 15 mM HEPES, 50 U/ml penicillin, 50 μg/ml streptomycin and non-essential amino acids (NEAA)]. The medium was then removed and the cells were charged for 60 min at 37° C. with Fluo-4 dye [25 μl Tyrode with 3 μM Fluo-4 AM (1 mM DMSO stock solution), 0.4 mg/ml Brilliant Black, 2.5 mM probenicid, 0.03% Pluronic F-127]. The cells were pre-incubated for 10 min with 10 μl of the test substances diluted in buffer, and 20 μl of agonist solution (MCP-1 in Tyrode with 0.05% BSA) were then added. MCP-1 was employed at the concentration which corresponds to the EC50 which had been determined in a preliminary test (usually about 5 nM). Ca^2+ release was monitored over a period of 120 s in 1 s increments in a proprietary fluorescence imaging reader. The molar concentration of the test substance which caused 50% inhibition of the MCP-1 effect (IC50) was determined using a 4-parameter logistic function (Hill function).

murine CCR2 = target: T2, murine CCR2 (Mus musculus, UniProt P51683); assay: Functional β-arrestin recruiting test with murine MCP-1 (B-2b); assay type: cell-based; conditions: U2OS β-arrestin cell line transfected with murine CCR2; agonist murine MCP-1; in some cases means of several determinations
T2 construct: host or cells: U2OS β-arrestin cell line
Experimental: The antagonistic action of test substances on CCR2 was determined in a β-arrestin test. The PathHunter β-arrestin GPCR test system (DiscoveRx Corporation, Ltd.) is a cell-based functional method for detecting binding of β-arrestin to an activated receptor. The molecular basis is a […] complementation measured by the enzymatic conversion of a chemiluminescent substrate. The test cell used was a U2OS β-arrestin cell line transfected with murine CCR2 (93-0543C3, DiscoveRx Corporation, Ltd.).
as §1
The cells, cultivated in MEM Eagle (supplemented with 10% FCS, 50 U/ml of penicillin, 50 μg/ml of streptomycin, 250 μg/ml of hygromycin and 500 μg/ml of geniticin), were sown at 2000 cells/25 μl in 384 well, μCLEAR/black cell culture plates from Greiner (#781092) and incubated at 37° C. for 24 h. The sowing medium consisted of Opti-MEM (supplemented with 1% FCS, 50 U/ml of penicillin and 50 μg/ml of streptomycin). The cells were pre-incubated for 10 min with 10 μl of the test substances diluted in buffer, and 10 μl of agonist solution [human MCP-1 (PeproTech, #300-04) in Tyrode with 0.05% BSA) were then added. The human MCP-1 was employed at the concentration which corresponds to the EC50 which had been determined in a preliminary test (usually about 3 nM). After 90 min of incubation at 37° C., the solution was removed, and recruitment of β-arrestin to CCR2 was detected with the aid of the PathHunter detection reagent (93-001, DiscoveRx Corporation, Ltd.) according to the instructions of the manufacturer. Luminescence was measured after an incubation time of 60 min using a proprietary luminescence imaging measuring instrument. The molar concentration of the test substance which caused 50% inhibition of the MCP-1 effect (IC50) was determined using a 4-parameter logistic function (Hill function).
The test was carried out in a manner identical to that described above under B-2a, but using murine MCP-1 (PeproTech, #250-10) as agonist.

T2 sequence (P51683 whole entry): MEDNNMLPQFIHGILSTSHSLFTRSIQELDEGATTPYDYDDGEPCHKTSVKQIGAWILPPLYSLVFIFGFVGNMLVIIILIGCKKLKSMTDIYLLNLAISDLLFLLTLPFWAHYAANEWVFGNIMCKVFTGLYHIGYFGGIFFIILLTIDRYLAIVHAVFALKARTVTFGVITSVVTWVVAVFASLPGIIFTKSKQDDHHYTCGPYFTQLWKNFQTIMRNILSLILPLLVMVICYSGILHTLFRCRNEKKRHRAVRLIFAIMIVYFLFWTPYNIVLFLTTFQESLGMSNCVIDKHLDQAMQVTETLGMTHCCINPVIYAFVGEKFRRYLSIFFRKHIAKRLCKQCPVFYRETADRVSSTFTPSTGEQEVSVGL

| Compound | IC50 (human CCR2) [nM] | IC50 (murine CCR2) [nM] |
| --- | --- | --- |
| O=c1[nH]c(-c2n[nH]c3ccccc23)nc(C(F)(F)F)c1Oc1ccc(Cl)c(Cl)c1 [Example 139, 5-(3,4-Dichlorophenoxy)-2-(1H-indazol-3-yl)-6-(trifluoromethyl)pyrimidin-4(3H)-one] | 0.7 | 229 |
| CN(C)c1ccc(-c2nc(C(F)(F)F)c(Oc3ccc(Cl)c(Cl)c3)c(=O)[nH]2)nc1 [Example 133, 5-(3,4-dichlorophenoxy)-2-[5-(dimethylamino)pyridin-2-yl]-6-(trifluoromethyl)pyrimidin-4(3H)-one] | 0.8 | 21700 |
| COc1nn(C)cc1-c1nc(C(F)(F)F)c(Oc2ccc(Cl)c(C(F)(F)F)c2)c(=O)[nH]1 [Example 235] | 20 | 796 |
| O=c1[nH]c(-c2nsc(Cl)c2Cl)nc(C(F)(F)F)c1Oc1ccc(Cl)c(C(F)(F)F)c1 [Example 228] | 5.3 | 227 |
| COc1cccc(-c2nc(C(F)(F)F)c(Oc3ccc(Cl)c(C(F)(F)F)c3)c(=O)[nH]2)n1 [Example 149, 5-[4-chloro-3-(trifluoromethyl)phenoxy]-2-(6-methoxypyridin-2-yl)-6-(trifluoromethyl)pyrimidin-4(3H)-one] | 0.7 | 526 |
| O=c1[nH]c(-n2cc(C(F)(F)F)cn2)nc(C(F)(F)F)c1Oc1ccc(Cl)c(Cl)c1 [Example 253] | 240 | 4230 |
| O=c1[nH]c(-c2ncccc2Cl)nc(C(F)(F)F)c1Cc1ccc(Cl)cc1 [Example 211] | 1.5 | 299 |
| COc1ccnc(-c2nc(C(F)(F)F)c(Oc3ccc(Cl)c(C(F)(F)F)c3)c(=O)[nH]2)c1 [Example 152, 5-[4-chloro-3-(trifluoromethyl)phenoxy]-2-(4-methoxypyridin-2-yl)-6-(trifluoromethyl)pyrimidin-4(3H)-one] | 8.2 | 838 |
| CC(C)Oc1ccnc(-c2nc(C(F)(F)F)c(Oc3ccc(Cl)c(Cl)c3)c(=O)[nH]2)c1 [Example 145, 5-(3,4-dichlorophenoxy)-2-(4-isopropoxypyridin-2-yl)-6-(trifluoromethyl)pyrimidin-4(3H)-one] | 322 | 2810 |
| Cc1cnc(-c2nc(C(F)(F)F)c(Oc3ccc(Cl)c(Cl)c3)c(=O)[nH]2)cc1C [Example 212] | 2.6 | 1700 |
| CS(=O)(=O)c1cccnc1-c1nc(C(F)(F)F)c(Oc2ccc(Cl)c(C(F)(F)F)c2)c(=O)[nH]1 [Example 266, 5-[4-Chloro-3-(trifluoromethyl)phenoxy]-2-[3-(methylsulphonyl)pyridin-2-yl]-6-(trifluoromethyl)pyrimidin-4(3H)-one] | 1.8 | 196 |
| Cn1ccc(-c2nc(C(F)(F)F)c(Oc3ccc(Cl)c(Cl)c3)c(=O)[nH]2)n1 [Example 225] | 0.3 | 150 |
| CSc1cccnc1-c1nc(C(F)(F)F)c(Oc2ccc(Cl)c(C(F)(F)F)c2)c(=O)[nH]1 [Example 114] | 0.1 | 6.1 |
| O=c1[nH]c(C2CCNCC2)nc(C(F)(F)F)c1Oc1ccc(Cl)c(C(F)(F)F)c1 [Example 259, 5-[4-chloro-3-(trifluoromethyl)phenoxy]-2-(piperidin-4-yl)-6-(trifluoromethyl)pyrimidin-4(3H)-one] | 624 | 3530 |
| CN(C)c1cccc(-c2nc(C(F)(F)F)c(Oc3ccc(Cl)c(C(F)(F)F)c3)c(=O)[nH]2)n1 [Example 135, 5-[4-chloro-3-(trifluoromethyl)phenoxy]-2-[6-(dimethylamino)pyridin-2-yl]-6-(trifluoromethyl)pyrimidin-4(3H)-one] | 14 | 1570 |
| O=c1[nH]c(-c2ncccc2-c2ccccc2)nc(C(F)(F)F)c1Oc1ccc(Cl)c(C(F)(F)F)c1 [Example 188, 5-[4-chloro-3-(trifluoromethyl)phenoxy]-2-(3-phenylpyridin-2-yl)-6-(trifluoromethyl)pyrimidin-4(3H)-one] | 1.5 | 828 |
| O=c1[nH]c(-c2ccsn2)nc(C(F)(F)F)c1Oc1ccc(Cl)c(Cl)c1 [Example 233] | 0.2 | 43 |
